From patent publication US20220317115A1, “3D ORGANOIDS FOR PERSONALIZED ORAL CANCER THERAPY” (THE TRUSTEES OF COLUMBIA UNIVERSITY IN THE CITY OF NEW YOURK, priority 2019, published 2022)
pIC50: −log10 of the molar value. Entries after “also recorded” stand apart in the source; their conditions may differ. Like-named read-outs stand apart in the source and are kept apart here.

What was measured:
EAC PDO = test: IC50 from drug-treated EAC PDO, mean organoid size by Celigo Imaging Cytometer; type: cell-based, human; conditions: 72 h-exposure, R squares 0.5874 (Cisplatin) and 0.8652 (Paclitaxel), read-out: IC50 (organoid size normalized by vehicle-treated control as 100%)
Description: EAC PDO size were evaluated by Celigo Imaging Cytometer measuring the mean organoid size following 72 h-exposure to Cisplatin and Paclitaxel at indicated final concentrations. Organoid size was normalized by vehicle-treated control as 100%.
To evaluate organoid growth, 3D organoid structures were monitored during culture, and their size is documented by a conventional phase-contrast inverted microscope or highthroughput cell imaging instruments (e.g., Celigo Image Cytometer, Nexcelom Bioscience) with the capacity of automated multi-well rapid imaging and quantitative analysis of organoid size, number and structure.
• 1. Grow organoids in 24-well or 96-well plates (Basic Protocols 1 and 2). Use at least three (3) wells per condition as biological replicates. • 2. Acquire phase-contrast images (FIGS. 37A-37B) manually via a conventional microscopy with a camera. Use ImageJ software to measure the diameter of at least 5 organoids per well. Alternatively, Celigo imaging cytometer can not only acquire phase-contrast images but calculate mean organoid area for all organoids imaged. Such assays can be performed in conjunction with drug treatment (FIG. 38) (Basic Protocol 6). • 3. Repeat step 2 every other day. • 4. Generate growth curves by plotting organoid diameter or area at each time point.
• 1. Remove the spent culture medium by aspiration. • 2. […]

[1] = test system: 4NQO-induced tumor organoids (Aldh2*2 vs Aldh2*1); test: CellTiter-Glo 3D cell viability assay of 4NQO-induced tumor organoids with Aldh2 SNP genotypes; type: cell-based, mice; conditions: for Response of Aldh2*2 (Aldh2 mutant) tumor organoids to chemotherapy agent compared with Aldh2*1 (wild-type) tumor organoids: treatment for 3 days, cisplatin 80 μM, 5FU data not shown
Description: 4NQO-induced tumor organoids with indicated Aldh2 SNP genotypes were analyzed by H&E staining for cellular abnormality in FIG. 5A and by […] CellTiter-Glo® 3D cell viability assays, following treatment for 3 days with cisplatin (80 μM) along with or without 10 μM Alda-1, an Aldh2 activator in FIG. 5B. *, p<0.01 vs. Aldh21; ns, not significant (n=6).
Aldh2*2 is a common single nucleotide polymorphism (SNP) strongly associated with OSCC. To evaluate the role of Aldh2*2 in 4NQO-induced neoplastic cells in 3D organoids, Aldh2*2 mice expressing mutant Aldh2 protein (Aldh2^E487K) were compared with wild-type Aldh2*1 (control) mice. 3D organoids were analyzed from tumors detected in mice sacrificed at 26 weeks from the start of 4NQO treatment. […] Thus, individuals with Aldh2*2 SNP may respond to chemotherapy better despite its strong association with a risk of OSCC tumor development. It was hypothesized that pharmacological Aldh2 inhibition by Disulfiram (Antabuse, used a treatment of chronic alcoholism) augments the chemotherapy effects in OSCC in individuals with Aldh2*1. Thus, patient-derived 3D organoids may serve as a platform for new translational applications in personalized medicine for therapy of OSCC and potentially other squamous cell carcinomas.
Oral 3D organoids (FIG. 6): 3D organoids will be generated according to the published protocols (Kasagi et al. 2018; Natsuizaka et al. 2017; Whelan et al. 2017). In 24-well plates, 2,000 cells are seeded in Matrigel (50 μl/well). Organoids grow within 7-10 days to form 50-100 μm spherical structures (100% success, n=34 for human normal biopsies) (Kasagi et al. 2018). For quality control purposes, an OSCC cell line will be used (Kijima et al. 2019). Time-lapse analysis of growing organoids will be done under light microscopy to determine their average size and morphology. organoid formation rate (OFR; the percentage of the number of organoids formed at day 10 per total number of cells seeded at day 0) will be determined. Organoids will then be processed for DNA, RNA and flow cytometry, and histology. […]

esophageal 3D organoids = test: Modeling reactive epithelium in esophageal organoids with IL-13; type: cell-based, human; conditions: IL-13 stimulation (10 ng/ml in protocol), compared to untreated organoids
Text: Reactive changes in esophageal epithelium are induced by multiple soluble factors secreted by immune cells and fibroblasts. The function of these factors in disease development can be modeled and evaluated in esophageal organoids. Here we provide an example of such an experiment by treating normal esophageal organoids with interleukin 13 (IL-13) to model reactive changes induced in esophageal epithelium by eosinophils; however, any bioactive compounds (cytokines, antibodies, small molecule inhibitors) can be utilized to model pathologic conditions and/or treatment strategies. Representative images of esophageal organoids treated with IL-13, as well as gene expression profiles of select EoE-relevant genes (Blanchard et al., 2007; Kasagi et al., 2019), can be found in FIGS. 35A-35B.
Additional Materials (see also Basic Protocol 1) • Interleukin 13 (IL-13; R&D Systems, cat. no. 213-ILB-005) • Reconstituted IL-13 (reconstitute lyophilized IL-13 to 100 μg/ml in PBS, aliquot, and store at −80° C.; avoid repeated freeze-thaw cycles) • Growing culture of esophageal organoids (see Basic Protocol 1) • 1. Remove spent medium. • 2. Dispense 500 μl KSFMC containing 10 ng/ml IL-13. • 3. Observe organoid growth under a phase-contrast microscope. • 4. Harvest organoids for histology and RNA isolation, as described in Basic Protocol 3. • 5. Evaluate changes in morphology and gene expression.

## N.N.[Cl][Pt][Cl] [Cisplatin]
EAC PDO
  pIC50: 5.15
[1]
  Response of Aldh2*2 (Aldh2 mutant) tumor organoids to chemotherapy agent compared with Aldh2*1 (wild-type) tumor organoids: better than Aldh2*1

## IL-13: eosinophilic esophagitis (EoE)-relevant cytokine, recombinant (R&D Systems)
Esophageal 3D organoids
  Reactive epithelial change (basal cell hyperplasia) in organoids: induces BCH-like changes; also recorded: Basal cell hyperplasia is evident

## O=c1[nH]cc(F)c(=O)[nH]1 [5FU, 5-Fluorouracil]
[1]
  Response of Aldh2*2 (Aldh2 mutant) tumor organoids to chemotherapy agent compared with Aldh2*1 (wild-type) tumor organoids: better than Aldh2*1

## CC(=O)O[C@H]1C(=O)[C@@]2(C)[C@H]([C@H](OC(=O)c3ccccc3)[C@]3(O)C[C@H](OC(=O)[C@H](O)[C@@H](NC(=O)c4ccccc4)c4ccccc4)C(C)=C1C3(C)C)[C@]1(OC(C)=O)CO[C@@H]1C[C@@H]2O [Paclitaxel]
EAC PDO; Homo sapiens
  pIC50: 5.64

## O=C(NCc1ccc2c(c1)OCO2)c1c(Cl)cccc1Cl [Alda1]
[1]; 10 μM Alda-1 with cisplatin 80 μM, 3 days
  Effect on cisplatin-mediated cytotoxicity in Aldh2*2 tumor 3D organoids: cisplatin-mediated cytotoxicity was reversed
